Laboratory results reported in article PMC9508239 (Nature Communications, 2022).
“And” between values parts separate entries of the source, which are not always exact repeats. Equal entries are not always repeated.

Key:
endogenous murine IR = experiment: IR signaling (pY IR, pAKT, pERK) in GFP MEFs, tamoxifen-inducible IR knockout (Fig. S8); assay type: cell-based, mouse; details: tamoxifen treatment, high concentration of insulin
Procedure: IR^F/F mice (Jackson #006955[71]) were crossed with CAG-CRE/ERT mice (Jackson #004682) to generate IR^F/F; CRE-ERT mice. The IR^F/F; CRE-ERT mice were backcrossed nine generations to C57BL/6 (Jackson #000664). The MEFs from IR^F/F; CRE-ERT mice were isolated as described earlier with some modifications. E14.5 embryos were minced with sterile scalpels and incubated with 0.25% trypsin-EDTA for 10 min at 37 °C and a 5% CO2 incubator. Fresh 0.25% trypsin-EDTA was added. After 10 min incubation, cells were put into fresh DMEM containing supplemented 10% (v/v) FBS, 2 mM L-glutamine, 55 μM β-mercaptoethanol, and 1% penicillin/streptomycin, and then centrifuged at 290×g for 5 min. […]
The cells were incubated with the lysis buffer B [50 mM Hepes pH 7.4, 150 mM NaCl, 10% Glycerol, 1% Triton X-100, 1 mM EDTA, 100 mM sodium fluoride, 2 mM sodium orthovanadate, 20 mM sodium pyrophosphate, 0.5 mM dithiothreitol (DTT), 2 mM phenylmethylsulfonyl fluoride (PMSF)] supplemented with cOmplete Protease Inhibitor Cocktail (Roche), PhosSTOP (Sigma), and 25 U/ml turbo nuclease (Accelagen) on ice for 1 h. After centrifuging at 20,817×g at 4 °C for 10 min, the concentrations of cell lysate were measured using Micro BCA Protein Assay Kit (Thermo Scientific). About 50–60 μg total proteins were analyzed by SDS-PAGE and quantitative Western blotting. […]

[1] = Body weight after chronic treatment, before OGTT; assay type: in vivo, mouse
Procedure: For the oral glucose tolerance test, mice were fasted for 6 h and their blood glucose levels (T = 0) were measured with tail bleeding using a glucometer (AlphaTRAK). After then, glucose (2 g/kg body weight) was administered by oral gavage. Blood glucose levels were measured at the indicated time points after glucose administration. For Fig. S10f, 2 months old male mice were fasted for 14 h. […] One hour later, livers were collected.

IR D496K = experiment: Auto-phosphorylation of IR in 293FT cells expressing IR D496K; assay type: cell-based, human
Procedure: (§1) For the activation assay, the short isoform of human IR in pCS2-MYC was used as described previously[20],[49]. Plasmid transfections into 293FT cells were performed with Lipofectamin^TM 2000 (Invitrogen).
(§2) The cells were incubated with the lysis buffer B [50 mM Hepes pH 7.4, 150 mM NaCl, 10% Glycerol, 1% Triton X-100, 1 mM EDTA, 100 mM sodium fluoride, 2 mM sodium orthovanadate, 20 mM sodium pyrophosphate, 0.5 mM dithiothreitol (DTT), 2 mM phenylmethylsulfonyl fluoride (PMSF)] supplemented with cOmplete Protease Inhibitor Cocktail (Roche), PhosSTOP (Sigma), and 25 U/ml turbo nuclease (Accelagen) on ice for 1 h. After centrifuging at 20,817×g at 4 °C for 10 min, the concentrations of cell lysate were measured using Micro BCA Protein Assay Kit (Thermo Scientific). About 50–60 μg total proteins were analyzed by SDS-PAGE and quantitative Western blotting. […] For quantitative western blots, anti-rabbit immunoglobulin G (IgG) (H + L) (WB, 1:5000; Dylight 800 conjugates, Cat. #5151) and anti-mouse IgG (H + L) (WB, 1:5000; Dylight 680 conjugates, Cat. #5470) (Cell Signaling) were used as secondary antibodies. […]

IR R14W = experiment: Auto-phosphorylation of IR in 293FT cells expressing IR R14W; assay type: cell-based, human
Procedure: as §1, §2

IR N15K = experiment: Auto-phosphorylation of IR in 293FT cells expressing IR N15K; assay type: cell-based, human
Procedure: as §1, §2

IR F497A = experiment: Auto-phosphorylation of IR in 293FT cells expressing IR F497A; assay type: cell-based, human
Procedure: as §1, §2

IR [2] = experiment: Insulin signaling in vivo, white adipose tissue (WAT); details: mouse epididymal WAT, vs vehicle
Procedure: as §2
Two to three months old male mice were fasted overnight. […] After centrifuging at 20,817×g at 4 °C for 30 min, the concentrations of cell lysate were measured using Micro BCA Protein Assay Kit (Thermo Scientific). The lysates were then analyzed by quantitative western blotting.

blood glucose = experiment: Insulin tolerance test; assay type: in vivo, mouse; details: i.p.; Humulin 6 nmol/kg, S597, S20D, W6A, F27A 9 nmol/kg, N20 27 nmol/kg; male mice
Procedure: Briefly, 2–3 months old male mice were fasted for 2 h and their blood glucose levels (T = 0) were measured with tail bleeding using a glucometer (AlphaTRAK). After then, mice were injected intraperitoneally with Humulin (6 nmol/kg body weight), S597 (9 nmol/kg), S597-S20D (9 nmol/kg), S597-W6A (9 nmol/kg), S597-F27A (9 nmol/kg), or S597-N20 (27 nmol/kg), and their blood glucose levels were measured at the indicated time points after injection.

IR [3] = experiment: Functional IR levels in liver after treatment (Fig. S10e,f); assay type: in vivo, mouse
Procedure: as §2
For the oral glucose tolerance test, mice were fasted for 6 h and their blood glucose levels (T = 0) were measured with tail bleeding using a glucometer (AlphaTRAK). […] Blood glucose levels were measured at the indicated time points after glucose administration. […]

## insulin: native IR ligand used as comparator; Humulin in the in vivo tests
Endogenous murine IR
  downstream signaling through residual IR: could activate downstream signaling
[1]; 50U/kg body weight, i.p., once daily for three days, male C57BL/6J, individual mice, N = 5, listed as Ins, in g (unit assumed)
  Body weight before OGTT: 19.9 and 21.6
[1]; 50U/kg once daily for three days, two-tailed Student's t-test
  Body weight, significance: No significant
IR D496K
  IR activation: reduced insulin-dependent IR activation
IR R14W
  IR activation: reduced insulin-dependent IR activation
IR N15K
  IR activation: reduced insulin-dependent IR activation
IR F497A
  IR activation: can be activated by insulin but with lesser efficiency than IR WT
IR [2]
  pAKT, WAT: significantly increased pAKT levels
  pERK, WAT: neither insulin nor S597 had a statistically significant effect on pERK levels
Blood glucose
  blood glucose lowering: significantly reduced
IR [3]; 50U/kg, i.p., 3 consecutive days
  IR downregulation: not significantly downregulated
IR [3]; one hour after insulin 0.1U/kg or S597 0.15U/kg
  IR downregulation: not significantly downregulated
